The target of the first test is human APJ receptor (Homo sapiens (Human), UniProt P35414). The test can be described thus: Intracellular cAMP accumulation assay (APJ hcAMP, HTRF). The format is cell-based. Particulars: HEK293 cells stably expressing human APJ receptor; inhibition of forskolin-mediated cAMP production; read-out: Human APJ cAMP EC50 Potency range. The method, then: Intracellular cAMP Accumulation Assay
Sequence of human APJ receptor (P35414 whole entry): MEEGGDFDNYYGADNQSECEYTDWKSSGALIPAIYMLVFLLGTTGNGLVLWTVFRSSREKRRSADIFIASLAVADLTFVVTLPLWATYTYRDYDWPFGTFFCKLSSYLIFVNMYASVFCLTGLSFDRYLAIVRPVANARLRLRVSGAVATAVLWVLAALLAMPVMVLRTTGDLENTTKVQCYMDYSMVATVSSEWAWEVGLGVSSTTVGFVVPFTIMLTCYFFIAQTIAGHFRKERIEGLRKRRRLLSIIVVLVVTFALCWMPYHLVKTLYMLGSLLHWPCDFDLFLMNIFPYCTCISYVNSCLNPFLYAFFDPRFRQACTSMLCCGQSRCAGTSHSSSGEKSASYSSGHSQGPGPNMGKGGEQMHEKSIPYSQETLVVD
HEK293 cells stably expressing human APJ receptor were used to assess the activity of compounds. Cultured cells were detached and resuspended in the cAMP Homogeneous Time-Resolved Fluorescence (HTRF) assay buffer (Cisbio cat; #62AM4PEJ). The assay was performed in 384-well assay plates (Perkin-Elmer; cat #6008289) according to assay protocol provided by the manufacturer. Serial dilutions of a compound together with assay buffer containing […] and 2 μM forskolin were added to each well containing 5,000 cells and incubated for 30 minutes at room temperature. Subsequently, cAMP D2 reagent was added in the lysis buffer followed by the EuK antibody (Cisbio; cat #62AM4PEJ) and incubated for 60 min. The fluorescence emission ratio was measured using fluorometer. The intracellular cAMP concentrations (compound-stimulated inhibition of forskolin-mediated cAMP production) were calculated by extrapolation from a standard curve using known cAMP concentrations. The EC50 values were obtained by fitting the data to a sigmoidal concentration-response curve with variable slope.
The EC50 value of each compound is presented at the end of the example description.
The biological activity of the exemplified compounds of this invention determined by the assay described above is shown at the end of each example.
Background: Cyclic AMP is a second messenger, typically raised through Gs and lowered through Gi signalling.
For `CCCCc1nc(=O)c(S(=O)(=O)c2ccc(-c3cccn(C)c3=O)cc2)c(O)n1[C@@H](CC)c1cccc(C#N)c1` [Example 504, 3-[(1S)-1-{2-butyl-6-hydroxy-5-[4-(1-methyl-2-oxo-1,2-dihydropyridin-3-yl)benzenesulfonyl]-4-oxo-1,4-dihydropyrimidin-1-yl}propyl]benzonitrile], the concentration giving a half-maximal response (EC50) (usually the midpoint of the concentration-response curve) was in the range of 0.01 to 10 nM. The same measure, in the same setting: as for `CCCCc1nc(=O)c(S(=O)(=O)c2ccc(-c3ccccc3C(=O)NC)cc2)c(O)n1[C@@H](CC)c1ccc(C#N)c(F)c1` [Example 520, 4′-({2-butyl-1-[(1S)-1-(4-cyano-3-fluorophenyl)propyl]-6-hydroxy-4-oxo-1,4-dihydropyrimidin-5-yl}sulfonyl)-N-methyl-[1,1′-biphenyl]-2-carboxamide], the figure is 0.01 to 10 nM; as for `CC[C@@H](c1cc(F)cc(C#N)c1)n1c(CC2CC2)nc(=O)c(S(=O)(=O)c2ccc(-c3ccncc3C)cc2)c1O` [Example 475, 3-[(1S)-1-[2-(cyclopropylmethyl)-6-hydroxy-5-[4-(3-methylpyridin-4-yl)benzenesulfonyl]-4-oxo-1,4-dihydropyrimidin-1-yl]propyl]-5-fluorobenzonitrile], 0.01 to 10 nM; as for `CCCCc1nc(=O)c(S(=O)(=O)c2ccc(-c3cc(C#N)ccc3C)cc2)c(O)n1[C@@H](CC)c1cccc(C#N)c1` [Example 493, 4′-({2-butyl-1-[(1S)-1-(3-cyanophenyl)propyl]-6-hydroxy-4-oxo-1,4-dihydropyrimidin-5-yl}sulfonyl)-6-methyl-[1,1′-biphenyl]-3-carbonitrile], 0.01 to 10 nM.

For the compound `CCOCc1nc(=O)c(S(=O)(=O)c2ccc(-c3ccccc3C(=O)NC)cc2)c(O)n1[C@H]1CCc2ccccc21` [Example 421, 4′-({1-[(1S)-2,3-dihydro-1H-inden-1-yl]-2-(ethoxymethyl)-6-hydroxy-4-oxo-1,4-dihydropyrimidin-5-yl}sulfonyl)-N-methy1-[1,1′-biphenyl]-2-carboxamide], the concentration giving a half-maximal response (EC50) is 0.01 to 10 nM. The same measure, in the same setting: as for `CCCCc1nc(=O)c(S(=O)(=O)c2ccc(-c3cccnc3C)cc2)c(O)n1C(c1cccc(C#N)c1)C1CC1` (stereo not shown) [Example 460, 3-({2-butyl-6-hydroxy-5-[4-(2-methylpyridin-3-yl)benzenesulfonyl]-4-oxo-1,4-dihydropyrimidin-1-yl}(cyclopropyl)methyl) benzonitrile], the figure is 0.01 to 10 nM. Same read-out and setting: as for `COc1cccc(OC)c1-n1c(-c2ccc(F)cc2)nc(=O)c(S(=O)(=O)c2ccc(C3CC3)cc2)c1O` [Example 278, 5-((4-Cyclopropylphenyl)sulfonyl)-1-(2,6-dimethoxyphenyl)-2-(4-fluorophenyl)-6-hydroxypyrimidin-4(1H)-one], the figure is 10 to 100 nM; as for `CCCCc1nc(=O)c(S(=O)(=O)c2ccc(-c3ccnc(F)c3C)cn2)c(O)n1[C@@H](CC)c1cccc(C#N)c1` [Example 456, 3-[(1S)-1-[2-butyl-5-({2′-fluoro-3′-methyl-[3,4′-bipyridine]-6-yl}sulfonyl)-6-hydroxy-4-oxo-1,4-dihydropyrimidin-1-yl]propyl]benzonitrile], 0.01 to 10 nM; as for `CCCCc1nc(=O)c(S(=O)(=O)[C@H]2CC[C@H](O)CC2)c(O)n1-c1c(OC)cccc1OC` [Example 556, 2-butyl-1-(2,6-dimethoxyphenyl)-6-hydroxy-5-{[(1r,4r)-4-hydroxycyclohexyl]sulfonyl}-1,4-dihydropyrimidin-4-one], 0.01 to 10 nM.

For the compound `CCCCc1nc(=O)c(S(=O)(=O)[C@H]2CC[C@@H](OCc3ccccc3)CC2)c(O)n1-c1c(CC)cccc1CC` [Example 365, 2-butyl-1-(2,6-diethylphenyl)-6-hydroxy-5-{[(1s,4s)-4-(benzyloxy)cyclohexyl]sulfonyl}-1,4-dihydropyrimidin-4-one], the EC50 is 0.01 to 10 nM. As for `C/C=C(/c1cccc(C#N)c1)n1c(CCCC)nc(=O)c(S(=O)(=O)c2ccc(-c3ccncc3C)cc2)c1O` [Example 478, 3-[(1Z)-1-{2-butyl-6-hydroxy-5-[4-(3-methylpyridin-4-yl)benzenesulfonyl]-4-oxo-1,4-dihydropyrimidin-1-yl}prop-1-en-1-yl]benzonitrile], the EC50 lay within 0.01 to 10 nM. Still for that read-out and setting: as for `CCCCc1nc(=O)c(S(=O)(=O)c2ccc(-c3ccc(C(N)=O)cc3F)cc2)c(O)n1[C@@H](CC)c1cccc(C#N)c1` [Example 525, 4′-({2-butyl-1-[(1S)-1-(3-cyanophenyl)propyl]-6-hydroxy-4-oxo-1,4-dihydropyrimidin-5-yl}sulfonyl)-2-fluoro-[1,1′-biphenyl]-4-carboxamide], the figure is 0.01 to 10 nM; as for `CCCCc1nc(=O)c(S(=O)(=O)c2ccc(-c3ccncc3C)cc2)c(O)n1[C@@H](CC)c1cccc(C#N)n1` [Example 550, 6-[(1S)-1-{2-butyl-6-hydroxy-5-[4-(3-methylpyridin-4-yl)benzenesulfonyl]-4-oxo-1,4-dihydropyrimidin-1-yl}propyl]pyridine-2-carbonitrile], 0.01 to 10 nM.

Staying with this test, now noted: human APJ, cAMP accumulation; read-out: Human APJ cAMP EC50 Potency range.
Take `CCCCc1nc(=O)c(S(=O)(=O)c2ccc(-c3ccnc(F)c3C)cc2)c(O)n1[C@@H](CC)c1cccc(F)c1` [Example 217, 2-butyl-5-[4-(2-fluoro-3-methylpyridin-4-yl)benzenesulfonyl]-1-[(1S)-1-(3-fluorophenyl)propyl]-6-hydroxy-1,4-dihydropyrimidin-4-one]: the EC50 fell in the range of 0.01 to 10 nM.

As to `COc1cccc(OC)c1-n1c(-c2cncc(C)c2)nc(=O)c(S(=O)(=O)c2ccc(-n3cc(Cl)ccc3=O)cc2)c1O` [Example 276, 5-[4-(5-chloro-2-oxo-1,2-dihydropyridin-1-yl)benzenesulfonyl]-1-(2,6-dimethoxyphenyl)-6-hydroxy-2-(5-methylpyridin-3-yl)-1,4-dihydropyrimidin-4-one], the EC50 lay in the range of 0.01 to 10 nM. The same measure, in the same setting: under `CCOCc1nc(=O)c(S(=O)(=O)c2ccc(-c3ccc(OC)nc3C)cc2)c(O)n1[C@@H](CC)c1ccccc1` [Example 309, 2-(ethoxymethyl)-6-hydroxy-5-[4-(6-methoxy-2-methylpyridin-3-yl)benzenesulfonyl]-1-[(1S)-1-phenylpropyl]-1,4-dihydropyrimidin-4-one] stands 0.01 to 10 nM.

As for `CC[C@@H](c1ccccc1)n1c(COC(C)C)nc(=O)c(S(=O)(=O)c2ccc(Br)cc2)c1O` [Example 286, 5-(4-bromobenzenesulfonyl)-6-hydroxy-1-[(1S)-1-phenylpropyl]-2-[(propan-2-yloxy)methyl]-1,4-dihydropyrimidin-4-one], the EC50 lay within 100 to 300 nM. For the compound `CCCCc1nc(O)c(S(=O)(=O)c2ccc(Br)cc2)c(=O)n1[C@@H](C)c1ccc(OC)cc1` [Example 246, 5-(4-bromobenzenesulfonyl)-2-butyl-6-hydroxy-3-[(1S)-1-(4-methoxyphenyl)ethyl]-3,4-dihydropyrimidin-4-one], the concentration for a half-maximal effect (EC50) fell in the range of 0.01 to 10 nM.

The same test, now with this note: human APJ, intracellular cAMP accumulation; read-out: Human APJ cAMP EC50 Potency range.
Regarding `CCCCc1nc(=O)c(S(=O)(=O)c2ccc(-c3ccc(F)nc3)cc2)c(O)n1[C@H](C)c1cccc(C#N)c1` [Example 166, 3-[(1R)-1-{2-butyl-5-[4-(6-fluoropyridin-3-yl)benzenesulfonyl]-6-hydroxy-4-oxo-1,4-dihydropyrimidin-1-yl}ethyl]benzonitrile], the EC50 was 10 to 100 nM. On the same count and under the same terms, under `CCCCc1nc(=O)c(S(=O)(=O)c2ccc(-c3cccc(C#N)c3)cc2)c(O)n1-c1c(OC)cccc1OC` [Example 47, 3-(4-{[2-butyl-1-(2,6-dimethoxyphenyl)-6-hydroxy-4-oxo-1,4-dihydropyrimidin-5-yl]sulfonyl}phenyl) benzonitrile] stands 0.01 to 10 nM; under `COc1cccc(OC)c1-n1c(C2CCCC2)nc(=O)c(S(=O)(=O)c2ccc(-c3ccnc(NC(=O)C4CC4)c3)cc2)c1O` [Example 64, N-[4-(4-{[2-cyclopentyl-1-(2,6-dimethoxyphenyl)-6-hydroxy-4-oxo-1,4-dihydropyrimidin-5-yl]sulfonyl}phenyl)pyri-din-2-yl]cyclopropane-carboxamide], 0.01 to 10 nM. For `CCCCc1nc(=O)c(S(=O)(=O)c2ccc(Br)cc2)c(O)n1[C@@H](CC)c1cccc(OC)c1` [Example 124, 5-(4-bromobenzenesulfonyl)-2-butyl-6-hydroxy-1-[(1S)-1-(3-methoxyphenyl)propyl]-1,4-dihydropyrimidin-4-one], the concentration for a half-maximal effect (EC50) fell in the range of 10 to 100 nM. The same measure, in the same setting: under `CCCCc1nc(=O)c(S(=O)(=O)c2ccc(-c3ccc(CN(C)C)cc3)cc2)c(O)n1-c1c(OC)cccc1OC` [Example 38, 2-butyl-1-(2,6-dimethoxyphenyl)-5-(4-{4-[(dimethyla,o)methyl]phenyl}benzenesulfonyl)-6-hydroxy-1,4-dihydropyrimidin-4-one] stands 0.01 to 10 nM.

`CCCCc1nc(=O)c(S(=O)(=O)C2CCN(C(=O)c3ccccc3)CC2)c(O)n1-c1c(OC)cccc1OC` [Example 111, 5-[(1-benzoylpiperidin-4-yl)sulfonyl]-2-butyl-1-(2,6-dimethoxyphenyl)-6-hydroxy-1,4-dihydropyrimidin-4-one]: the EC50 is 0.01 to 10 nM. Same read-out and setting: as for `CCCCc1nc(=O)c(S(=O)(=O)c2ccc(C(=O)Nc3ccc(F)nc3)cc2)c(O)n1-c1c(OC)cccc1OC` [Example 97, 4-{[2-butyl-1-(2,6-dimethoxyphenyl)-6-hydroxy-4-oxo-1,4-dihydropyrimidin-5-yl]sulfonyl}-N-(6-fluoropyridin-3-yl)benzamide], the figure is 10 to 100 nM.

The values above are taken from US10508104B2, “6-hydroxy-5-(phenyl/heteroarylsulfonyl)pyrimidin-4(1H)-one as APJ agonists” (Bristol-Myers Squibb Company, priority 2016, dated 2019).
